Tests used:
[1] = target: T1, human NaV1.6 (hNaV1.6) (Homo sapiens, UniProt Q9UQD0); experiment: Modulation of late sodium current (INaL), PatchXpress electrophysiology, HEK-293 cells expressing hNaV1.6; type: cell-based; settings: HEK293, late current evoked by 300 nM ATX-II, read-out: NaV 1.6 Assay Data: percent inhibition of INaL at hNaV1.6
T1 construct: expressed in transfected cells; host or cells: HEK-293
Procedure: Functional characterization of exemplary compounds to modulate INaL expressed by the NaV1.6 voltage-gated sodium channel was accomplished using the PatchXpress™ high throughput electrophysiology platform (Molecular Devices, Sunnyvale, Calif.). HEK-293 cells expressing recombinant, human NaV1.6 (hNaV1.6) were grown in DMEM/high-glucose Dulbecco's modified, 10% FBS, 2 mM sodium pyruvate, 10 mM HEPES and 400 μg/mL G418. Cells were grown to 50%-80% confluency prior to harvesting. Trypsinized cells were washed, allowed to recover for 1 hour and then resuspended in extracellular recording solution at a concentration of 1×10^6 cells/ml. The onboard liquid handling facility of the PatchXpress was used for dispensing cells and applying test compounds. NaV late currents were evoked by the application of 300 nM ATX-II. INaL was evoked by depolarizing pulses to 0 mV for 200 ms from a non-inactivating holding potential (e.g., −120 mV) at a frequency of 0.1 Hz. INaL amplitude and stability were determined by analyzing the mean current amplitude over the final 20 ms of the test pulse. Following steady state block with exemplary compounds (e.g., as described herein), a Na+ free solution containing an impermeant cation (e.g., Choline or NDMG) was added to confirm the identify of the sodium current. Percent steady-state inhibition of INaL was calculated as: [(INaL_compound)/(INaL_control)]*100, where INaL_compound and INaL_control represent INaL recorded in the presence or absence of compound, respectively.

[2] = target: T2, hNaV1.5-WT (Homo sapiens, UniProt Q14524); experiment: Voltage step activated sodium current (Peak INa), PatchXpress, HEK-293; type: cell-based; settings: HEK293; percent inhibition measured at 1 μM; step to 0 mV from half-inactivation holding potential
T2 construct: expressed in transfected cells; host or cells: HEK-293
Procedure: (§1) Functional characterization of exemplary compounds to modulate INa expressed by various human isoforms and disease-causing mutant voltage-gated sodium channels was accomplished using the PatchXpress high throughput electrophysiology platform (Molecular Devices, Sunnyvale, Calif.). HEK-293 cells expressing a recombinant, human NaV1.X sodium channel (either hNaV1.6-WT, hNaV1.6-R223G, hNaV1.6-N984K, hNaV1.6-N1768D, hNaV1.1-WT, hNaV1.2-WT, hNaV1.5-WT, hNaV1.7-WT, or hNaV1.8-WT) were grown in DMEM/high-glucose Dulbecco's modified, 10% FBS, 2 mM sodium pyruvate, 10 mM HEPES and 400 μg/mL G418. Cells were grown to 50%-80% confluency prior to harvesting. Trypsinized cells were washed, allowed to recover for 1 hour and then resuspended in extracellular recording solution at a concentration of 1×10^6 cells/ml. The onboard liquid handling facility of the PatchXpress was used for dispensing cells and applying test compounds. INa amplitude and stability were determined by analyzing the peak current amplitude.
(§2) Peak INa was evoked by depolarizing steps to 0 mV for 20 ms from a holding potential which evoked half-inactivation (e.g., −60 mV) at a frequency of 0.1 Hz. The voltage of half-inactivation was determined for each cell using a 5 sec prepulse to membrane potentials between −120 mV and −20 mV followed immediately by a voltage step to a fully activating membrane voltage (e.g., 0 mV). Following steady state block with exemplary compounds (e.g., as described herein), the degree of inhibition was measured using the average of three consecutive voltage steps. Percent steady-state inhibition of INa was calculated as: [(INa_compound)/(INa_control)]*100, where INa_compound and INa_control represent INa recorded in the presence or absence of compound, respectively.
(§3) In this table, “A” indicates inhibition between less than 0% to 50% and “B” indicates inhibition of greater than 50% and N/A indicates the compound was not tested.

[3] = target: T3, hNaV1.6-WT (Homo sapiens, UniProt Q9UQD0); experiment: as above; type: cell-based; settings: HEK293; percent inhibition measured at 1 μM; step to 0 mV from half-inactivation holding potential
T3 construct: expressed in transfected cells; host or cells: HEK-293
Procedure: as §1, §2, §3

[4] = target: T4, hNaV1.7-WT (Homo sapiens, UniProt Q15858); experiment: as above; type: cell-based; settings: HEK293; percent inhibition measured at 1 μM; step to 0 mV from half-inactivation holding potential
T4 construct: expressed in transfected cells; host or cells: HEK-293
Procedure: as §1, §2, §3

[5] = target: T5, hNaV1.8-WT (Homo sapiens, UniProt Q9Y5Y9); experiment: as above; type: cell-based; settings: HEK293; percent inhibition measured at 1 μM; step to 0 mV from half-inactivation holding potential
T5 construct: expressed in transfected cells; host or cells: HEK-293
Procedure: as §1, §2, §3

[6] = target: T6, hNaV1.6-N1768D (Homo sapiens, UniProt Q9UQD0, N1768D); experiment: Voltage ramp activated sodium current (Ramp INa), PatchXpress, HEK-293; type: cell-based; settings: HEK293; percent inhibition of enhanced ramp current at 1 μM; +600 mv/sec ramp from −100 mV to +20 mV
T6 construct: expressed in transfected cells; host or cells: HEK-293
Procedure: as §1
(§4) The Nav1.6 mutant channels (hNaV1.6-R223G, hNaV1.6-N984K, hNaV1.6-N1768D) express an enhanced sodium current in response to a ramp voltage depolarization when compared to the wild-type hNaV1.6-WT. This enhanced, depolarizing ramp current is thought to contribute to enhanced neuronal excitability. The degree of block with exemplary compounds (e.g., as described herein) was measured using a +600 mv/sec voltage ramp from −100 mV to +20 mV. The ramp current was defined as the area of the current measured between −55 mV and +15 mV. Following steady state block with exemplary compounds (e.g., as described herein) at 1 μM, a Na^+ free solution containing an impermeant cation (e.g., Choline or NMDG) was added for determination of the baseline current level for offline subtraction. Percent inhibition of enhanced ramp current was calculated as (compound−baseline)/(control−baseline)*100, where control represents the ramp current recorded in the absence of compound. In this table, “A” indicates inhibition between less than 0% to 50% and “B” indicates inhibition of greater than 50% and N/A indicates the compound was not tested.

[7] = target: T7, hNaV1.6-N984K (Homo sapiens, UniProt Q9UQD0, N984K); experiment: as above; type: cell-based; settings: HEK293; percent inhibition of enhanced ramp current at 1 μM; +600 mv/sec ramp from −100 mV to +20 mV
T7 construct: expressed in transfected cells; host or cells: HEK-293
Procedure: as §1, §4

[8] = target: T8, hNaV1.6-R223G (Homo sapiens, UniProt Q9UQD0, R223G); experiment: as above; type: cell-based; settings: HEK293; percent inhibition of enhanced ramp current at 1 μM; +600 mv/sec ramp from −100 mV to +20 mV
T8 construct: expressed in transfected cells; host or cells: HEK-293
Procedure: as §1, §4

[9] = tested on: Male CD-1 mice; experiment: Maximal Electroshock induced Seizure (MES) assay in mice; type: in vivo, mouse; settings: 35% HPCD, pre-treatment 30 min, recorded up to 60 seconds post stimulus
Procedure: Male CD-1 mice, weighing 25-35 g were assessed in the Maximal Electroshock induced Seizure (MES) assay. Briefly, mice were dosed with compound (n=12/group) according to the dosing parameters in Table 20 and the latency to induce tonic hind limb extension following transauricular electrical stimulation (50 Hz, 50 mA, 0.8 sec duration, pulse width of 10 ins) was recorded up to 60 seconds post stimulus.

T1 sequence (Q9UQD0 whole entry): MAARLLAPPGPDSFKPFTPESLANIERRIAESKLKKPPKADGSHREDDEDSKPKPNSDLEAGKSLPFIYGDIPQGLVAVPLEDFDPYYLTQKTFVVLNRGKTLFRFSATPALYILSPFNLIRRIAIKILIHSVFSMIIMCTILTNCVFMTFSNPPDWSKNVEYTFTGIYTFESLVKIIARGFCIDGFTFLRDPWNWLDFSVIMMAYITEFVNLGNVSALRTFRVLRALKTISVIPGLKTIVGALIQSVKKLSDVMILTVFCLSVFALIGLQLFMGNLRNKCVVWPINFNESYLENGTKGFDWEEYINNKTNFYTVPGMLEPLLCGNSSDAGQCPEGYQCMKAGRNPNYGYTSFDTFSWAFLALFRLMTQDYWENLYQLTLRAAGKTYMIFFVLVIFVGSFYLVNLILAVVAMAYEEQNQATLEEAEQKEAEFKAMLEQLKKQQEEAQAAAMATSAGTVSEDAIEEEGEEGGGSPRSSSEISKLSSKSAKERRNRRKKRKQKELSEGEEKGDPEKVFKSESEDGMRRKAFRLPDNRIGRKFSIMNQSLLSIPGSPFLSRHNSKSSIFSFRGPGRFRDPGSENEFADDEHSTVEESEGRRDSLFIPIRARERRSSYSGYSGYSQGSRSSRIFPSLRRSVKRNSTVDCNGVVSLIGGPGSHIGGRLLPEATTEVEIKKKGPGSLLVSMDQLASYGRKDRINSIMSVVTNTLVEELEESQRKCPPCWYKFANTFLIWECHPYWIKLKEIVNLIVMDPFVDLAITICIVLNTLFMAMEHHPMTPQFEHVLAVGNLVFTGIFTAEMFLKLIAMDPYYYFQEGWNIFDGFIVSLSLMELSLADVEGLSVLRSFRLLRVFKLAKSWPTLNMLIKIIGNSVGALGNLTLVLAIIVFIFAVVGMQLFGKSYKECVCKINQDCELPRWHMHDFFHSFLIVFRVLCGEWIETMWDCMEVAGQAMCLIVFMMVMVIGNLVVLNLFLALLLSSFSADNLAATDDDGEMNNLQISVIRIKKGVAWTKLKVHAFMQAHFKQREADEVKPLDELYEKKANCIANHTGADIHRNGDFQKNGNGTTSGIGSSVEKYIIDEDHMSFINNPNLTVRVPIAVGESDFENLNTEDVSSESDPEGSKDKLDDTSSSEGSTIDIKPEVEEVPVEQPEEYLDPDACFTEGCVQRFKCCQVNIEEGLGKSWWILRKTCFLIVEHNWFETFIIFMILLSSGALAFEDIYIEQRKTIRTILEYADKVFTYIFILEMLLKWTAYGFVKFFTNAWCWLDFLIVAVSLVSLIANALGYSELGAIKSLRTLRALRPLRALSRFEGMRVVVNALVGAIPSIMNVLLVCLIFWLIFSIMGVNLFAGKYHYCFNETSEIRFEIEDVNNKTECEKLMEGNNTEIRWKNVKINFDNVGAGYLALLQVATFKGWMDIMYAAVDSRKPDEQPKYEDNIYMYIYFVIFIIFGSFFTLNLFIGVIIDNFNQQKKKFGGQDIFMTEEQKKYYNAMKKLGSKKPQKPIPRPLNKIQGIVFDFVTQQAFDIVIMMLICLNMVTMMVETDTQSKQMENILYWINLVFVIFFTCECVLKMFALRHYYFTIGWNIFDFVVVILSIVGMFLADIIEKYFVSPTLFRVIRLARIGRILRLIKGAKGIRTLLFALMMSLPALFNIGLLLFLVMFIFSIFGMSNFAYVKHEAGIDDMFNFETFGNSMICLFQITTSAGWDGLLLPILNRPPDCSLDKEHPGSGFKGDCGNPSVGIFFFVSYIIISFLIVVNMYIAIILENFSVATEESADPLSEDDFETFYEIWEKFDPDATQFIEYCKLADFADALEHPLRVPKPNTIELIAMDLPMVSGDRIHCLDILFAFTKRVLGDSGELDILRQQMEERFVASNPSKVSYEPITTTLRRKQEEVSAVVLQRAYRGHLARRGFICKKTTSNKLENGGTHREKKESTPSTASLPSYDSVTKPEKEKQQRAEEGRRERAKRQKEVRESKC
T4 sequence (Q15858 whole entry): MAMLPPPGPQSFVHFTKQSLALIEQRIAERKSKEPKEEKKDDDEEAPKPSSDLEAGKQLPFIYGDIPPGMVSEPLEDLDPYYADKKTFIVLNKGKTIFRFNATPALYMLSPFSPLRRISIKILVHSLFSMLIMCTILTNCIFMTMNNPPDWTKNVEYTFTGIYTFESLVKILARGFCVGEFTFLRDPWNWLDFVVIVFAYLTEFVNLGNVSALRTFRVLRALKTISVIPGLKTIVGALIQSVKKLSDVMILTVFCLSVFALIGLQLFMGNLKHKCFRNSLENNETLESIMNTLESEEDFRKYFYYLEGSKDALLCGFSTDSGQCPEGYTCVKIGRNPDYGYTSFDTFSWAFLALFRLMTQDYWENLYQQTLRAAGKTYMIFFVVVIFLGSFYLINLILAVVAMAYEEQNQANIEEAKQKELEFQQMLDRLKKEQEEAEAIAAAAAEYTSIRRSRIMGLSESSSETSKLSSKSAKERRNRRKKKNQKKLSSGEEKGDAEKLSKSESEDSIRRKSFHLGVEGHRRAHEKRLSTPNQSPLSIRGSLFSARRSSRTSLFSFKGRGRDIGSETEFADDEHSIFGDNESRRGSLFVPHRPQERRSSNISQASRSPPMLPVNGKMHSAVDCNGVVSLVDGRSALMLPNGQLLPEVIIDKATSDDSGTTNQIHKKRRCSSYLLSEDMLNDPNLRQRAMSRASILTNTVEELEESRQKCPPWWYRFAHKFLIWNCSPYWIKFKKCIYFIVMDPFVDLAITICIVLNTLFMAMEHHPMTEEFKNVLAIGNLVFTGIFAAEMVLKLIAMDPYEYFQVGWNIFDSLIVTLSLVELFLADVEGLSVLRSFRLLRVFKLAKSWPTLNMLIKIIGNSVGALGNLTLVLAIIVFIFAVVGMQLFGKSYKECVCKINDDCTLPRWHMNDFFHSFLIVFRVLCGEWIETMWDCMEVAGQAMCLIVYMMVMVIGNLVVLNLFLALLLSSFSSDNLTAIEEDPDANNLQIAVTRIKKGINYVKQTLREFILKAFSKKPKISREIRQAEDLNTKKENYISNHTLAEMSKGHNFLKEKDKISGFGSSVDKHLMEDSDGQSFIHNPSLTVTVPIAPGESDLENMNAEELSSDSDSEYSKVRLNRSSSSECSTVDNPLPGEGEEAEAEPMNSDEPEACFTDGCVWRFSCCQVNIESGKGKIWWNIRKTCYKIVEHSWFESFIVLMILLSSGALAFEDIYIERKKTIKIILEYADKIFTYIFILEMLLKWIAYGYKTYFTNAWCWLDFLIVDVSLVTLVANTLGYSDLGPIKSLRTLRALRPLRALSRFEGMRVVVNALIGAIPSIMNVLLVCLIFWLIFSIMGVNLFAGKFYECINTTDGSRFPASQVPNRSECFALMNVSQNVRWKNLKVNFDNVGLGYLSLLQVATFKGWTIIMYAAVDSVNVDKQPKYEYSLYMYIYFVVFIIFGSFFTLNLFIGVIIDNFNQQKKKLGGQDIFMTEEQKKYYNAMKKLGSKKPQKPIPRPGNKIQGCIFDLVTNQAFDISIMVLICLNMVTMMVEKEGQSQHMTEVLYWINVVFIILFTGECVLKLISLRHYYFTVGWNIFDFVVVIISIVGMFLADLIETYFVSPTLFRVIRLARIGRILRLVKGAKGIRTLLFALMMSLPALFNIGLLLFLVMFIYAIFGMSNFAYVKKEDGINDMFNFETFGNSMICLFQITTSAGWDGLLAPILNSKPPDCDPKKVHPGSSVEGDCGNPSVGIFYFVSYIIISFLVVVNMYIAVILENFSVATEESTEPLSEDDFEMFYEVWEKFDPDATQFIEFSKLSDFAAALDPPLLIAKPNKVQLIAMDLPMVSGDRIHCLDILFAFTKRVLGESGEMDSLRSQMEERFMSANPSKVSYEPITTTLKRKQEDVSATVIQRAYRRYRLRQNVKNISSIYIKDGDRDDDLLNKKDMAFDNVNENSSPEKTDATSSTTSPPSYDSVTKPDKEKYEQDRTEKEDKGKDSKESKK
T3 sequence (Q9UQD0 whole entry): as the sequence (Q9UQD0 whole entry) above
T7 sequence (Q9UQD0 whole entry N984K): as the sequence (Q9UQD0 whole entry) above, with N984K counted along it
T6 sequence (Q9UQD0 whole entry N1768D): as the sequence (Q9UQD0 whole entry) above, with N1768D counted along it
T8 sequence (Q9UQD0 whole entry R223G): as the sequence (Q9UQD0 whole entry) above, with R223G counted along it

Structure (SMILES) | inhibition at 1 µM [1] [%] | other results
COCc1nnc2cnc(-c3cnc(OC(C)(C)C(F)(F)F)c(F)c3)cn12 [Compound 48] | > 70 | inhibition at 1 µM [2]: > 50%; inhibition at 1 µM [3]: > 50%; inhibition at 1 µM [4]: > 50%; inhibition at 1 µM [5]: > 50%; inhibition at 1 µM [6]: > 50%; inhibition at 1 µM [7]: < 50%; inhibition at 1 µM [8]: < 50%; Mean latency to tonic extension ([9]; 3 mg/kg PO): 42.5 s; Mean latency to tonic extension ([9]; 10 mg/kg PO): 60 s
FC1(F)CC(Oc2ccc(-c3cn4c(C(F)(F)OC5CC5)nnc4cn3)cn2)C1 [Compound 78, 3-(cyclopropoxydifluoromethyl)-6-(6-(3,3-difluorocyclobutoxy)pyridin-3-yl)-[1,2,4]triazolo[4,3-a]pyrazine] | > 70 | 
CC(C)COC(F)(F)c1nnc2ccc(-c3cnc(O[C@@H](C)C(F)(F)F)c(F)c3)nn12 [Compound 47, 3-[difluoro(isobutoxy)methyl]-6-[5-fluoro-6-[(1S)-2,2,2-trifluoro-1-methyl-ethoxy]-3-pyridyl]-[1,2,4]triazolo[4,3-b]pyridazine] | > 70 | 
COC(F)(F)c1nnc2ccc(-c3cnc(OC4(C(F)(F)F)CCC4)c(F)c3)nn12 [Compound 17, 3-[difluoro(methoxy)methyl]-6-[5-fluoro-6-[1-(trifluoromethyl)cyclobutoxy]-3-pyridyl]-[1,2,4]triazolo[4,3-b]pyridazine] | > 70 | 
CC(C)COC(F)(F)c1nnc2ccc(-c3cnc(O[C@@H](C)C(F)(F)F)c(F)c3)cn12 [Compound 22, 3-[difluoro(isobutoxy)methyl]-6-[5-fluoro-6-[(1S)-2,2,2-trifluoro-1-methyl-ethoxy]-3-pyridyl]-[1,2,4]triazolo[4,3-a]pyridine] | > 70 | 
Fc1cc(-c2ccc3nnc(C(F)(F)OCC4CC4)n3n2)cnc1OCC(F)(F)F [Compound 14, 3-[cyclopropylmethoxy(difluoro)methyl]-6-[5-fluoro-6-(2,2,2-trifluoroethoxy)-3-pyridyl]-[1,2,4]triazolo[4,3-b]pyridazine] | > 70 | 
COC(F)(F)c1nnc2ccc(-c3cnc(OC(C)(C)C(F)(F)F)c(F)c3)cn12 [Compound 24, 3-[difluoro(methoxy)methyl]-6-[5-fluoro-6-(2,2,2-trifluoro-1,1-dimethyl-ethoxy)-3-pyridyl]-[1,2,4]triazolo[4,3-a]pyridine] | > 70 | 
CCOC(F)(F)c1nnc2ccc(-c3cnc(O[C@@H](C)C(F)(F)F)c(F)c3)nn12 [Compound 41, 3-[ethoxy(difluoro)methyl]-6-[5-fluoro-6-[(1S)-2,2,2-trifluoro-1-methyl-ethoxy]-3-pyridyl]-[1,2,4]triazolo[4,3-b]pyridazine] | > 70 | 
COC(F)(F)c1nnc2cnc(-c3cnc(OC(C)(C)C(F)(F)F)c(F)c3)cn12 [Compound 15, 3-[difluoro(methoxy)methyl]-6-[5-fluoro-6-(2,2,2-trifluoro-1,1-dimethyl-ethoxy)-3-pyridyl]-[1,2,4]triazolo[4,3-a]pyrazine] | > 70 | 
COCc1nnc2cnc(-c3cnc(OCC(F)(F)F)c(F)c3)cn12 [Compound 39, 6-[5-fluoro-6-(2,2,2-trifluoroethoxy)-3-pyridyl]-3-(methoxymethyl)-[1,2,4]triazolo[4,3-a]pyrazine] | < 30 | 
CCOC(F)(F)c1nnc2cnc(-c3ccc(OC(C)(C)C(F)(F)F)nc3)cn12 [Compound 88, 3-(ethoxydifluoromethyl)-6-(6-((1,1,1-trifluoro-2-methylpropan-2-yl)oxy)pyridin-3-yl)-[1,2,4]triazolo[4,3-a]pyrazine] | > 70 | 
COC(F)(F)c1nnc2ccc(-c3cnc(OCC(F)(F)F)c(F)c3)cn12 [Compound 30, 3-[difluoro(methoxy)methyl]-6-[5-fluoro-6-(2,2,2-trifluoroethoxy)-3-pyridyl]-[1,2,4]triazolo[4,3-a]pyridine] | > 70 | 
COCc1nnc2cc(C)c(-c3cnc(O[C@@H](C)C(F)(F)F)c(F)c3)nn12 [Compound 70, 6-[5-fluoro-6-[(1S)-2,2,2-trifluoro-1-methyl-ethoxy]-3-pyridyl]-3-(methoxymethyl)-7-methyl-[1,2,4]triazolo[4,3-b]pyridazine] | < 30 | 
COC(F)(F)c1nnc2ccc(-c3cnc(OC(C)(C)C(F)(F)F)c(F)c3)nn12 [Compound 5, 3-[difluoro(methoxy)methyl]-6-[5-fluoro-6-(2,2,2-trifluoro-1,1-dimethyl-ethoxy)-3-pyridyl]-[1,2,4]triazolo[4,3-b]pyridazine] | > 70 | 
COCc1nnc2ccc(-c3ccc(OC(C)(C)C(F)(F)F)nc3)cn12 [Compound 87, 3-(methoxymethyl)-6-(6-((1,1,1-trifluoro-2-methylpropan-2-yl)oxy)pyridin-3-yl)-[1,2,4]triazolo[4,3-a]pyridine] | 30 to 70 | 
COC(F)(F)c1nnc2ccc(-c3cnc(O[C@H](C)C(F)(F)F)c(F)c3)nn12 [Compound 13, 3-[difluoro(methoxy)methyl]-6-[5-fluoro-6-[(1R)-2,2,2-trifluoro-1-methyl-ethoxy]-3-pyridyl]-[1,2,4]triazolo[4,3-b]pyridazine] | > 70 | 
COC(F)(F)c1nnc2ccc(-c3cnc(O[C@@H](C)C(F)(F)F)c(F)c3)cn12 [Compound 7, 3-[difluoro(methoxy)methyl]-6-[5-fluoro-6-[(1S)-2,2,2-trifluoro-1-methyl-ethoxy]-3-pyridyl]-[1,2,4]triazolo[4,3-a]pyridine] | > 70 | 
Fc1cc(-c2cn3c(C(F)(F)OC4CC4)nnc3cn2)cnc1OCC(F)(F)F [Compound 75, 3-(cyclopropoxydifluoromethyl)-6-(5-fluoro-6-(2,2,2-trifluoroethoxy)pyridin-3-yl)-[1,2,4]triazolo[4,3-a]pyrazine] | > 70 | 

Reference: patent US11731976B2, “3-(ethoxydifluoromethyl)-6-(5-fluoro-6-(2,2,2-trifluoroethoxy)pyridin-3-yl)-[1,2,4]triazolo[4,3-a]pyridine as an ion channel modulator” (Praxis Precision Medicines, Inc., priority 2018, dated 2023)
